{"source": "ChEMBL document CHEMBL1201862", "about": "“PubChem BioAssay data set” (2004)", "assay_in_all_cases": "growth of human tumour cells (NCI), 48 h", "key": {"786-0": {"system": "786-0"}, "A498": {"system": "A498"}, "A549": {"system": "A549"}, "ACHN": {"system": "ACHN"}, "CAKI-1": {"system": "CAKI-1"}, "CCRF-CEM": {"system": "CCRF-CEM"}, "COLO 205": {"system": "COLO 205"}, "DU-145": {"system": "DU-145"}, "EKVX": {"system": "EKVX"}, "HCC 2998": {"system": "HCC 2998"}, "HCT-116": {"system": "HCT-116"}, "HCT-15": {"system": "HCT-15"}, "HL-60": {"system": "HL-60"}, "HOP-62": {"system": "HOP-62"}, "HOP-92": {"system": "HOP-92"}, "HT-29": {"system": "HT-29"}, "IGROV-1": {"system": "IGROV-1"}, "K562": {"system": "K562"}, "KM12": {"system": "KM12"}, "LOX IMVI": {"system": "LOX IMVI"}, "M14": {"system": "M14"}, "MCF7": {"system": "MCF7"}, "MDA-MB-231": {"system": "MDA-MB-231"}, "MDA-MB-435": {"system": "MDA-MB-435"}, "MDA-N": {"system": "MDA-N"}, "MOLT-4": {"system": "MOLT-4"}, "Malme-3M": {"system": "Malme-3M"}, "NCI-H226": {"system": "NCI-H226"}, "NCI-H23": {"system": "NCI-H23"}, "NCI-H460": {"system": "NCI-H460"}, "NCI-H522": {"system": "NCI-H522"}, "NCI/ADR-RES": {"system": "NCI/ADR-RES"}, "OVCAR-3": {"system": "OVCAR-3"}, "OVCAR-4": {"system": "OVCAR-4"}, "OVCAR-5": {"system": "OVCAR-5"}, "OVCAR-8": {"system": "OVCAR-8"}, "PC-3": {"system": "PC-3"}, "RXF 393": {"system": "RXF 393"}, "SF-268": {"system": "SF-268"}, "SF-295": {"system": "SF-295"}, "SF-539": {"system": "SF-539"}, "SK-MEL-28": {"system": "SK-MEL-28"}, "SK-MEL-2": {"system": "SK-MEL-2"}, "SK-MEL-5": {"system": "SK-MEL-5"}, "SK-OV-3": {"system": "SK-OV-3"}, "SN12C": {"system": "SN12C"}, "SNB-19": {"system": "SNB-19"}, "SNB-75": {"system": "SNB-75"}, "SR": {"system": "SR"}, "SW-620": {"system": "SW-620"}, "T47D": {"system": "T47D"}, "TK-10": {"system": "TK-10"}, "U-251": {"system": "U-251"}, "UACC-257": {"system": "UACC-257"}, "UACC-62": {"system": "UACC-62"}}, "note": "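Following 48 hours of exposure in 96-well plates, responses at five concentrations were used to interpolate endpoints linearly. The concentration for 50% growth inhibition is given as GI50.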 The source made the active and inactive calls. No stated cut-off is given here; in the data, active = GI50 up to about 1.1 µM and inactive = higher."}
{"smiles": "CC(=O)OCC1OC(n2c(-c3ccccc3)c(C(C)=O)c(-c3ccc(Cl)cc3)c(C#N)c2=S)C(OC(C)=O)C(OC(C)=O)C1OC(C)=O", "note": "(stereo not given)", "values": [{"measurement": "GI50", "setting": "786-0", "result": "> 100 µM (inactive)"}, {"measurement": "GI50", "setting": "A498", "result": "> 100 µM (inactive)"}, {"measurement": "GI50", "setting": "A549", "result": "> 100 µM (inactive)"}, {"measurement": "GI50", "setting": "ACHN", "result": "> 100 µM (inactive)"}, {"measurement": "GI50", "setting": "CAKI-1", "result": "99.8 µM (inactive)"}, {"measurement": "GI50", "setting": "CCRF-CEM", "result": "29.9 µM (inactive)"}, {"measurement": "GI50", "setting": "COLO 205", "result": "> 100 µM (inactive)"}, {"measurement": "GI50", "setting": "DU-145", "result": "> 100 µM (inactive)"}, {"measurement": "GI50", "setting": "EKVX", "result": "> 100 µM (inactive)"}, {"measurement": "GI50", "setting": "HCC 2998", "result": "> 100 µM (inactive)"}, {"measurement": "GI50", "setting": "HCT-116", "result": "83.2 µM (inactive)"}, {"measurement": "GI50", "setting": "HCT-15", "result": 11.6, "unit": "µM"}, {"measurement": "GI50", "setting": "HL-60", "result": "> 100 µM (inactive)"}, {"measurement": "GI50", "setting": "HOP-62", "result": "> 100 µM (inactive)"}, {"measurement": "GI50", "setting": "HOP-92", "result": "0.601 µM (active)"}, {"measurement": "GI50", "setting": "HT-29", "result": "> 100 µM (inactive)"}, {"measurement": "GI50", "setting": "IGROV-1", "result": "> 100 µM (inactive)"}, {"measurement": "GI50", "setting": "K562", "result": "> 100 µM (inactive)"}, {"measurement": "GI50", "setting": "KM12", "result": "> 100 µM (inactive)"}, {"measurement": "GI50", "setting": "LOX IMVI", "result": "> 100 µM (inactive)"}, {"measurement": "GI50", "setting": "M14", "result": "> 100 µM (inactive)"}, {"measurement": "GI50", "setting": "MCF7", "result": "> 100 µM (inactive)"}, {"measurement": "GI50", "setting": "MDA-MB-231", "result": "70.3 µM (inactive)"}, {"measurement": "GI50", "setting": "MDA-MB-435", "result": "> 100 µM (inactive)"}, {"measurement": "GI50", "setting": "MDA-N", "result": "62.8 µM (inactive)"}, {"measurement": "GI50", "setting": "MOLT-4", "result": "> 100 µM (inactive)"}, {"measurement": "GI50", "setting": "Malme-3M", "result": "> 100 µM (inactive)"}, {"measurement": "GI50", "setting": "NCI-H226", "result": "> 100 µM (inactive)"}, {"measurement": "GI50", "setting": "NCI-H23", "result": "> 100 µM (inactive)"}, {"measurement": "GI50", "setting": "NCI-H460", "result": "26.8 µM (inactive)"}, {"measurement": "GI50", "setting": "NCI-H522", "result": "> 100 µM (inactive)"}, {"measurement": "GI50", "setting": "NCI/ADR-RES", "result": "> 100 µM (inactive)"}, {"measurement": "GI50", "setting": "OVCAR-3", "result": "> 100 µM (inactive)"}, {"measurement": "GI50", "setting": "OVCAR-4", "result": "83.8 µM (inactive)"}, {"measurement": "GI50", "setting": "OVCAR-5", "result": "> 100 µM (inactive)"}, {"measurement": "GI50", "setting": "OVCAR-8", "result": "> 100 µM (inactive)"}, {"measurement": "GI50", "setting": "PC-3", "result": "1.93 µM (inactive)"}, {"measurement": "GI50", "setting": "RXF 393", "result": "65.5 µM (inactive)"}, {"measurement": "GI50", "setting": "SF-268", "result": "50.4 µM (inactive)"}, {"measurement": "GI50", "setting": "SF-295", "result": "> 100 µM (inactive)"}, {"measurement": "GI50", "setting": "SF-539", "result": "> 100 µM (inactive)"}, {"measurement": "GI50", "setting": "SK-MEL-28", "result": "> 100 µM (inactive)"}, {"measurement": "GI50", "setting": "SK-MEL-2", "result": "< 0.01 µM (active)"}, {"measurement": "GI50", "setting": "SK-MEL-5", "result": "21.2 µM (inactive)"}, {"measurement": "GI50", "setting": "SK-OV-3", "result": "> 100 µM (inactive)"}, {"measurement": "GI50", "setting": "SN12C", "result": "> 100 µM (inactive)"}, {"measurement": "GI50", "setting": "SNB-19", "result": "> 100 µM (inactive)"}, {"measurement": "GI50", "setting": "SNB-75", "result": "32.3 µM (inactive)"}, {"measurement": "GI50", "setting": "SR", "result": "> 100 µM (inactive)"}, {"measurement": "GI50", "setting": "SW-620", "result": "> 100 µM (inactive)"}, {"measurement": "GI50", "setting": "T47D", "result": "> 100 µM (inactive)"}, {"measurement": "GI50", "setting": "TK-10", "result": "> 100 µM (inactive)"}, {"measurement": "GI50", "setting": "U-251", "result": "> 100 µM (inactive)"}, {"measurement": "GI50", "setting": "UACC-257", "result": "> 100 µM (inactive)"}, {"measurement": "GI50", "setting": "UACC-62", "result": "> 100 µM (inactive)"}]}
